Two molecules from patent EP0372541A1, “Method for imparting immunosuppression” (priority 1988, dated 1990) can be followed below.

Data set [1] deals with cyclosporine-treated renal transplant recipients. In words: Randomized, double-blind, placebo controlled clinical study in renal transplant recipients on cyclosporine. The class given is in vivo, human. The conditions noted are these: for Acute Rejection / Creatinine / Creatinine Clearance: 200 µg Q.I.D. with cyclosporine. The source says: A randomized, double-blind, placebo controlled study was designed: (1) to determine the safety and efficacy of a PGE₁ prostaglandin in reducing cyclosporine-induced nephrotoxicity in renal transplant recipients; and (2) to examine the effects of the PGE₁ prostaglandin on the incidence rate of clinically important events such as acute transplant rejection.
The PGE, prostaglandin evaluated was misoprostol, ((±) methyl 11α, 16-dihydroxy-16-methyl-9-oxoprost-13E-en-1-oate). Subjects received the PGE₁ prostaglandin in dosages of 200 µg or a placebo four times a day (Q.I.D.) for the first twelve weeks following transplantation. A study population of 77 subjects was evaluated. Efficacy was assessed by a serial comparison of renal function and by measuring the duration and functional severity of transplant rejection, cyclosporine nephrotoxicity, and other episodes of acute renal failure in the PGE₁ prostaglandin and the placebo groups. Serial measurements of serum creatinine and creatinine clearance were used to determine trends and differences in renal function between treatment groups.
The subjects in the clinical study were first stratified into two groups according to the source of the allograft, cadaver or living-related donor. Members of each group were assigned at random in the order of enrollment to receive the PGE₁ prostaglandin or the placebo according to a computer-generated assignment schedule prepared prior to the start of the study. The purpose of this approach was to guarantee adequate randomization of subjects as a function of allograft source and probable post-transplantation function.
The administration of the prostaglandin began with the first dose of cyclosporine. The subjects received the .prostaglandin Q.I.D. given 30-60 minutes p.c. (after a meal) and h.s. (at night). The prostaglandin initially could be administered via a nasogastric tube. Following discharge of the patient from the hospital. the patient began to administer the placebo or prostaglandin and recording the dosing in a diary. The test article dosing remained one tablet Q.I D. continuing the 30-60 minute p.c and h.s. schedule.
Hematology and chemistry profiles were obtained on the first and seventh post-transplantation days and again after four weeks. A chemistry profile was obtained at eight and twelve weeks. A urinalysis was obtained on the first post-operative day and again after four weeks.
Twenty-four hour creatinine clearance measurements were obtained on post-operative days one, three, and seven, then weekly for three weeks and at four week intervals thereafter until the study was terminated.
Serum creatinine measurements were obtained on postoperative days 1, 3 and 7, and then at weeks 4, 8, 12 and 16.
Measurement of trough cyclosporine levels were required on days one, three, five and seven; twice during each of weeks two, three and four; and at least once during weeks eight, twelve and sixteen.
Acute renal failure was defined as the presence of any of the following: • 1) Any change in renal function which prompted the principal investigator to perform a diagnostic maneuver (e.g., measure of serum creatinine concentration or urinary sodium concentration) or therapeutic maneuver (e.g., give intravenous fluids) to investigate or treat the change. • 2) A rise in serum creatinine concentration from a stable base line of at least 0.2 mg/dl/day for two days or 0.3 mg/dl in one day. • 3) A fall in urine output to less than an average of 25 ml per hour for more than 24 hours.
After twelve weeks of treatment and four additional weeks of observation, the subject underwent a physical examination and a complete medical history was reviewed. The following laboratory tests were also obtained: hematology, PT/PTT, chemistry, urinalysis. creatinine clearance, cyclosporine level and serum beta HCG (where appropriate). In addition, any other measurements of creatinine concentration or clearance obtained during the post-treatment period were recorded.

Data set [2] has as its system mixed lymphocyte response. In words: Mixed lymphocyte response (MLR) assay, tritiated thymidine incorporation. The note with it: Figures 9 and 10; for inhibition of the mixed lymphocyte response in combination with cyclosporine: free acid added to cyclosporine; for inhibition of the mixed lymphocyte response in combination with methylprednisolone: free acid added to methylprednisolone. The class given is cell-based. The source says: The mixed lymphocyte response is a clinically useful predictor of the immunosuppressive activity of drugs.The mixed lymphocyte response assay data shown below and in Figures 7-10 were obtained with the following method. A stimulator panel of Epstein-Barr virus (EBV) transformed continuous lymphoblastoid cell lines was employed to magnify responses. There were equal numbers of four cell lines with eight different HLA-DR antigens (two per cell line). Stimulator cells were irradiated (13,000 rad) before suspension in a modified RPMI medium. Responder lymphocytes were prepared from heparinized recipient blood by density gradient separation before suspension in glutamine with antibiotic-supplemented RPMI medium containing 10% autologous serum. Equal numbers of responder and stimulator cells (1x 10⁵ in 0.1 ml) were incubated with 0.05 ml of medium (control) or varying concentrations of the three prostaglandin analogs (misoprostol, enisoprost and misoprostol-free acid) or methylprednisolone or cyclosporine or combinations of these agents.
Following incubation at 37°C and 5% CO₂ for five days, one microcurie of tritiated thymidine was added and cell cultures incubated for six hours. Cells were then harvested. MLR responses for the three different prostaglandin analogs were then compared for several different concentrations (Figure 7). The effects of the prostaglandins were also compared to those of the control ethanol diluent (Figure 8).

The mark [3] stands for this setting: 1 Month after renal transplantation.
[4] abbreviates: 2 Months after renal transplantation.
Setting [5] is: 3 Months after renal transplantation.
Where [6] appears, read: listed as PGE₁ prostaglandin free acid.

The structures appear in SMILES notation.

For `CCCCC(C)(O)C/C=C/[C@H]1[C@H](O)CC(=O)[C@@H]1CCCCCCC(=O)OC` (mixture of isomers) [PGE₁, (±) methyl 11α, 16-dihydroxy-16-methyl-9-oxoprost-13E-en-1-oate], in data set [1] (setting [3]), the “Acute Rejection” value was 3 first episode/mo, the Creatinine was found to be 1.6 ± 0.2 mg/dL and the “Creatinine Clearance” value is 73 ± 5 ml/min/1.73m2. Moreover, in data set [1] (setting [4]), the “Acute Rejection” value turned out to be 2 first episode/mo, the Creatinine was 1.4 ± 0.1 mg/dL and the “Creatinine Clearance” value is given as 77 ± 6 ml/min/1.73m2. In data set [1] (setting [5]), the “Acute Rejection” value was found to be 2 first episode/mo, the Creatinine was found to be 1.4 ± 0.1 mg/dL and the “Creatinine Clearance” value was found to be 81 ± 5 ml/min/1.73m2. In addition, in data set [1] (cyclosporine-treated renal transplant recipients, versus placebo), the renal function entry was “improved renal function”. In data set [1] (during the three months of treatment, p = 0.015), the “acute rejection versus placebo” value was “significantly reduced”. Also, in data set [1] (human, in vivo), the “cyclosporine absorption (cyclosporine dosage and trough blood levels by HPLC)” value is given as “no interference with cyclosporine absorption”. The “cyclosporine nephrotoxicity (incidence rate of first episodes)” value in data set [1] (versus placebo, Figure 5) is recorded as “no increase in cyclosporine nephrotoxicity”.

On to `CCCCC(C)(O)CC=CC1C(O)CC(=O)C1CCCCCCC(=O)O` (racemic) [misoprostol free acid], for which, in data set [2], the “inhibition of the mixed lymphocyte response in combination with cyclosporine” value is listed as “clear evidence of enhancement of immunosuppressive activity” and the “inhibition of the mixed lymphocyte response in combination with methylprednisolone” value is given as “clear evidence of enhancement of immunosuppressive activity”. In data set [2] (setting [6]), the “inhibition of the mixed lymphocyte response in combination with cyclosporine” value is recorded as “larger than additive effect” and the “inhibition of the mixed lymphocyte response in combination with methylprednisolone” value was “larger than additive effect”.
